Results reported in US20260176274A1, “ENAMINE N-OXIDE TOOLS FOR TARGET IDENTIFICATION APPLICATIONS” (DANA-FARBER CANCER INSTITUTE, INC., priority 2022, published 2026).
Entries after “also recorded” stand apart in the source; their conditions may differ.

Tests used:
[1] = target: T1, carbonic anhydrase (Bos taurus, UniProt P00921); experiment: Labeling site identification on recombinant carbonic anhydrase by nano-LC-MS/MS; design: species or system bovine; conditions: probe 10 μM, B2(OH)4 100 μM
T1 construct: purchased MP Biomedicals; host or cells: bovine erythrocytes
Protocol: BARS probe 21′a: Enamine N-oxide 21′a (10 μL, 500 μM in PBS, pH 7.4; 10 μM final concentration) was added to an aliquot of recombinant CA from bovine erythrocytes ([…], MP Biomedicals) suspended in 480 μL PBS, pH 7.4 in a microcentrifuge tube and incubated at rt for 30 min. Tetrahydroxydiboron (10 μL, 5 mM in PBS, pH 7.4; 100 μM final concentration) was subsequently added and gently mixed. The tubes were incubated at rt for an additional 10 min. Subsequently, the sample was concentrated via spin filtration (Amicon® Ultra-0.5 mL, UFC500324, 10 kDa MWCO) following the manufacturer's recommended protocol. PBS was added after each filtration cycle and the concentration was repeated for a total of five times. The eluate was collected in a clean microcentrifuge tube and its concentration determined by NanoDrop (Thermo Fisher Scientific™).
An aliquot of carbonic anhydrase labeled with enamine N-oxide 21′a (prepared from the above procedure) was reduced with dithiothreitol (10 mM final concentration, 56° C., 30 min), alkylated with iodoacetamide (22.5 mM final concentration, rt, 30 min protected from light), and digested overnight with Glu-C (1:20) at 37° C. in 100 mM ammonium bicarbonate. Peptides were desalted using SP3 beads and analyzed by nano-LC-MS/MS using a nanoAcquity UPLC system interfaced to a QExactive HF mass spectrometer (Ficarro et al., Anal. Chem., 9:3440-3447 (2009)). […]

[2] = target: T2, CA2 (Homo sapiens, UniProt P00918); experiment: In cellulo BARS labeling in live HEK293T cells, immunoblot against CA2; format: cell-based; conditions: probe 5 μM 2 h, wash, B2(OH)4 100 μM 10 min
T2 construct: endogenous in cells; host or cells: HEK293T
Protocol: HEK293T cells were cultured in DMEM containing 10% FBS (Sigma), 100 units/mL penicillin, and 0.1 mg/mL streptomycin (Sigma) in a humidified chamber at 37° C. under an ambient atmosphere with 5% CO2. After culturing to >80% confluency in 150 mm plates, the plates were removed from the incubator, the media was aspirated, and the cells were trypsinized at 37° C. with 0.25% trypsin, 0.1% EDTA in HBSS (3 mL). After 3 min, complete growth medium (7 mL) was added to the detached cells, and the cell suspension was transferred to a 50 mL centrifuge tube. Cells were pelleted (400×g, 4 min, 23° C.) and washed with 2×20 mL PBS, pH 7.4. At this point, the density of the cell suspension in PBS was determined by the trypan blue exclusion method. The cells were pelleted once more, and the volume of PBS was adjusted to produce a cell suspension with a final density of 2×10^7 cells/mL. The cell suspension was aliquoted into 2 mL microcentrifuge tubes (3×1 mL, 2×10^7 cells each). […] Competitor 21′ (50 μM final concentration, from a 500 mM stock in DMSO) was also added to the third tube. The samples were incubated at 37° C. with end-over-end rotation. After 2 h of incubation, the cells were pelleted (400×g, 4 min, 23° C.) and washed once with PBS, pH 7.4.

[3] = target: T3, carbonic anhydrase (CA) (Bos taurus, UniProt P00921); experiment: Ligand-directed labeling of equimolar recombinant BSA/CA mixture, in-gel fluorescence; format: binding; conditions: equimolar BSA and CA; probe 200 nM, B2(OH)4 100 μM, 10 min, PBS pH 7.4
Protocol: An equimolar suspension of recombinant BSA and recombinant CA was prepared by combining BSA (22 μg, 1 mg/mL in PBS, pH 7.4) and CA (10 pg, 1 mg/mL in PBS, pH 7.4) in PBS, pH 7.4 (1 mL). This was approximately 333 nM of each protein. For each reaction, an aliquot of this mixture (97 μL) was added to a microcentrifuge tube. […] Sulfonamide competitor (21′, 1 μL, 5 mM solution in 1% DMSO/PBS; 50 μM final concentration) or PBS, pH 7.4 (1 μL) vehicle control was added to the samples. The tubes were incubated at rt for 30 min. Tetrahydroxydiboron (1 μL, 10 mM solution; 100 μM final concentration) was subsequently added with gentle mixing. The tubes were incubated at rt for an additional 10 min. Subsequently, CuAAC click-cocktail solution containing TAMRA-azide (6 μL) was added and the tubes were incubated at rt in the dark for 1 h.
For sample preparation, 5× sample loading buffer (25 μL) was added directly to the TAMRA-modified BSA/CA samples. The samples were subsequently heated to 95° C. for 10 min and then subjected to SDS-PAGE and in-gel fluorescence imaging. In-gel fluorescence imaging was performed on a Typhoon™ FLA 9500 (GE) at 532 nm with photomultiplier tube (PMT) setting of 300 V.

[4] = target: T3, carbonic anhydrase (CA); experiment: Intact mass spectrometry of recombinant carbonic anhydrase labeled with probe; format: binding, bovine; design: purchased MP Biomedicals; host or cells: bovine erythrocytes; conditions: for labeling of CA (intact mass spectrometry): probe 10 μM, B2(OH)4 100 μM or UV irradiation 10 min
Protocol: Tetrahydroxydiboron (10 μL, 5 mM in PBS, pH 7.4; 100 μM final concentration) was subsequently added and gently mixed. The tubes were incubated at rt for an additional 10 min. Subsequently, the sample was concentrated via spin filtration (Amicon® Ultra-0.5 mL, UFC500324, 10 kDa MWCO) following the manufacturer's recommended protocol. PBS was added after each filtration cycle and the concentration was repeated for a total of five times. The eluate was collected in a clean microcentrifuge tube and its concentration determined by NanoDrop (Thermo Fisher Scientific™).
The samples were then transferred onto a 24-well plate and UV irradiated (365 nm) for 10 min on ice. After every 2 min of irradiation, the plate was rotated […] to ensure complete and equal UV exposure. After irradiation, the samples were transferred to a spin filtration column (Amicon® Ultra-0.5 mL, UFC500324, 10 kDa MWCO) and concentrated following the manufacturer's recommended protocol. PBS was added after each filtration cycle, and the concentration was repeated for a total of five times. The eluate was collected in a clean microcentrifuge tube and its concentration determined by NanoDrop (Thermo Fisher Scientific™).
Replicate samples of carbonic anhydrase (n=4; labeled with enamine N-oxide 21′a or diazirine 21′b) were desalted on a self-packed column (500 μm I.D. fused silica packed with 5 cm POROSR2 resin) and gradient eluted (0→100% B in 1 min, A=200 mM acetic acid in water, B=200 mM acetic acid in acetonitrile) to the mass spectrometer (LTQ XL mass spectrometer, Thermo Fisher Scientific; spray voltage=5 kV). The mass spectrometer recorded full scan profile spectra n z 300-2000. Mass spectra were deconvoluted using MagTran version 1.03b2 (Zhang et al., J. Am. Chem. Soc. Mass. Spectrom., 3:225-244 (1998)). Percent labeling was calculated as intensity labeled protein/(intensity unlabeled protein+intensity labeled protein)×100%.

[5] = target: T2, CA2; experiment: Labeling of endogenous CA in HEK293T cell lysate, streptavidin blot or pulldown and immunoblot against CA2; format: binding; conditions: probe 200 nM; diboron 100 μM 10 min or UV irradiation 10 min
Protocol: For sample preparation, 5× sample loading buffer was added directly at least 10 μg aliquot of the clicked cell lysate clicked with biotin (picolyl) azide. The samples were subsequently heated to 95° C. for 10 min and loaded onto a BioRad Mini-PROTEAN® TGX™ Precast Protein gel, 4-20% (15 μL) and run in freshly prepared Tris-glycine running buffer (160 V, 50 min). The gel was washed (3×DI water) and transferred to a 0.2 μm PVDF membrane. After transfer, the membrane was washed (3×TBST) and blocked with 5% fish skin gelatin (or any appropriate blocking buffer for Western blot) in TBST (rt, 1 h), and subsequently incubated with the appropriate primary antibody (1:1000 dilution in 5% fish skin gelatin in TBST, rt, 1 h). The membrane was washed (3×TBST) and incubated with the appropriate secondary antibody (1:10000 dilution in 5% fish gelatin in TBST, rt, 1 h). The membrane was again washed thoroughly with TBST and imaged using a chemiluminescence imager (Amersham™ Imager 600, GE).
Samples were loaded onto a Bio-Rad Mini-PROTEAN® TGX™ Precast Protein 15-well gel, 4-20% (15 μL) alongside All Blue Prestained Protein Standard (Bio-Rad, 5 μL) as a ladder, and run in freshly prepared Tris-glycine running buffer (180 V, 45 min). The gel was washed (3×50 mL deionized water) and transferred to a 0.2 m low fluorescence PVDF membrane (Bio-Rad) using a semi-dry transfer apparatus (Bio-Rad Trans-Blot® Turbo™ Transfer System) and preprogrammed transfer setting (1.3 A, 25 V, 10 min).

[6] = test system: validated targets; experiment: Target identification in cell lysate: BARS probe, diboron activation, streptavidin pulldown, immunoblot against validated targets; format: binding; conditions: K562 (24′a) or HepG2 (26′a) cell lysate; probe 1 μM, B2(OH)4 100 μM 10 min
Protocol: The click-modified cell lysate (3 mg) was transferred to 15 mL centrifuge tubes and precipitated via methanol/chloroform precipitation using the following protocol. Methanol (6 mL) was added to the lysate and vortexed. Chloroform (1.5 mL) was subsequently added and vortexed. Finally, water (4 mL) was added and vortexed. The samples were centrifuged (3000×g, 5 min, 4° C.). The top aqueous layer was removed, and methanol (8 mL) was subsequently added and vortexed. The samples were centrifuged (3000×g, 5 min, 4° C.), the supernatant was removed, and the methanol wash was repeated once more. […]
Samples were loaded onto a Bio-Rad Mini-PROTEAN® TGX™ Precast Protein 15-well gel, 4-20% (15 μL) alongside All Blue Prestained Protein Standard (Bio-Rad, 5 μL) as a ladder, and run in freshly prepared Tris-glycine running buffer (180 V, 45 min). The gel was washed (3×50 mL deionized water) and transferred to a […] low fluorescence PVDF membrane (Bio-Rad) using a semi-dry transfer apparatus (Bio-Rad Trans-Blot® Turbo™ Transfer System) and preprogrammed transfer setting (1.3 A, 25 V, 10 min). […]
Enamine N-oxide probe (15 μL; 200 nM or 1 μM final concentration for probe 21′a, […] for probes 22′a-26′a) was added to a microcentrifuge tube containing cell lysate (3 mg, as determined by BCA assay) suspended in cold NP40 lysis buffer (1.455 mL). […]

T3 sequence (P00921 whole entry): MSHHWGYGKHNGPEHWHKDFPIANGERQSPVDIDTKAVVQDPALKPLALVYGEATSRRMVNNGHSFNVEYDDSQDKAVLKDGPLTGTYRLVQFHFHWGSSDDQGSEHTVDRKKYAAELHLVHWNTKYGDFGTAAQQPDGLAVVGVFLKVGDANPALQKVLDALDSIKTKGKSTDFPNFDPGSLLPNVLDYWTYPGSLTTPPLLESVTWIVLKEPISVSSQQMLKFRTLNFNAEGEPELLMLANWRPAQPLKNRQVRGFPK
T1 sequence (P00921 whole entry): as above

Row | SMILES | labeling of CA (intact mass spectrometry) [4] [%] | labeling of endogenous CA in HEK293T cell lysate [5] | additional targets pulled down [6] | also measured
1 | C#CCCC[N+](C)([O-])C(Br)=CC(Cl)CCCC(=O)NCCCOCCOCCOCCCNC(=O)c1ccc(S(N)(=O)=O)cc1 (centres unmarked) [21′a, 23-Bromo-21-chloro-N-methyl-1,17-dioxo-N-(pent-4-yn-1-yl)-1-(4-sulfamoylphenyl)-6,9,12-trioxa-2,16-diazatricos-22-en-23-amine oxide] | 51.8 | could also be labeled; also recorded: superior labeling | – | labeling sites on CA N-terminal peptide [1]: His2 or His3; target identification in live HEK293T cells (CA2) [2]: positively identified; selectivity of labeling, CA over BSA [3]: CA was preferentially labeled over BSA; improvement of CA labeling, enamine N-oxide over diazirine ([4]; 51.8% vs 3.6% labeling): 14.4 fold
2 | C#CCCC1(CCNC(=O)CCOCCOCCOCCNC(=O)c2ccc(S(N)(=O)=O)cc2)N=N1 [21′b, N-(15-(3-(but-3-yn-1-yl)-3H-diazirin-3-yl)-12-oxo-3,6,9-trioxa-13-azapentadecyl)-4-sulfamoylbenzamide, reference compound] | 3.6 | – | – | –
3 | C#CCCC[N+](C)([O-])/C(Br)=C/C(Cl)CCCC(=O)NCCCCCCNc1cc(Nc2ncc(C(=O)Nc3c(C)cccc3Cl)s2)nc(C)n1 (centres unmarked) [24′a, (Z)-1-Bromo-3-chloro-7-((6-((6-((5-((2-chloro-6-methylphenyl)carbamoyl)thiazol-2-yl)amino)-2-methylpyrimidin-4-yl)amino)hexyl)amino)-N-methyl-7-oxo-N-(pent-4-yn-1-yl)hept-1-en-1-amine oxide] | – | – | ABL and p38 pulled down | –
4 | C#CCCC[N+](C)([O-])/C(Br)=C/C(Cl)CCCC(=O)N(C)[C@@H]1C[C@H]2O[C@@](C)([C@@H]1OC)n1c3ccccc3c3c4c(c5c6ccccc6n2c5c31)C(=O)NC4 (stereo partly drawn) [26′a, (Z)-1-Bromo-3-chloro-7-(((5S,6R,7R,9R)-6-methoxy-5-methyl-14-oxo-6,7,8,9,15,16-hexahydro-5H,14H-17-oxa-4b,9a,15-triaza-5,9-methanodibenzo[b,h]cyclonona[jkl]cyclopenta[e]-as-indacen-7-yl)(methyl)amino)-N-methyl-7-oxo-N-(pent-4-yn-1-yl)hept-1-en-1-amine oxide] | – | – | PKC and SRC pulled down | –
5 | CCN(CC)C(=O)C=CCCc1ccccc1 [compound 13, reference compound] | – | barely perceptible | – | protein labeled (intact mass spectrometry of CA) ([4]; N-oxide probe plus diboron or diazirine probe plus UV irradiation): < 1%
